The results in this text go back to ChEMBL document CHEMBL6182934, “Photo-clenbuterol: Optical Control of β2-Adrenergic Receptor Signaling by Photoswitchable Ligand Efficacy” (J Med Chem, 2025).

This series is described as follows: Photothermal stability of compound in HBSS buffer assessed as thermal relaxation half life measured after pre-illumination of compound to reach cis-isomer. The series is classed as physicochemical.
By half-life is commonly meant the time needed for the level to fall by half in the phase considered. Regarding `CC(C)(C)NCC(O)c1cc(Cl)c(/N=N/c2c(Cl)cccc2Cl)c(Cl)c1` (racemic), the half-life was 26 days.

Consider `CC(C)(C)NCC(O)c1cc(Cl)c(/N=N/c2ccccc2)c(Cl)c1` (racemic), for which the half-life was 112 days.

Turning to `CC(C)(C)NCC(O)c1ccc(/N=N/c2ccccc2)c(Cl)c1` (racemic), the half-life is 38 days.

Take `CC(C)(C)NCC(O)c1cc(Cl)c(/N=N/c2ccccc2)c(C#N)c1` (racemic): the half-life was 11 days.

With `CC(C)(C)NCC(O)c1ccc(/N=N/c2ccccc2)cc1` (racemic), the half-life was 29 days.
